These results are taken from patent publication US11458138B2 (Novartis AG, priority 2017, dated 2022).

Assay [1] concerns human limbal stem cells (LSCs). In words: Human limbal stem cell population expansion: percentage of p63alpha-positive cells. The class given is cell-based. To be noted: 10 micromolar, XVIVO15 medium. The protocol:
(§1) Cells were cultured at 37° C. in 5% CO2.
For each compound, two sets of cultures were generated. A first set of cultures was fixed in 4% PFA for 20 minutes at room temperature after cells isolated from the cornea had attached to the cell culture dish (typically 24 h after cell plating). A second set of cultures was fixed in 4% PFA for 20 minutes at room temperature after being cultured for two passages. Cells were passaged when they reached 90-100% confluence.
In order to observe that the expanded cell population expressed p63alpha, this was measured by immunohistochemistry as follows. The fixed cell cultures were permeabilized and blocked in a blocking solution of 0.3% Triton X-100 (Sigma-Aldrich) and 3% donkey serum in PBS for 30 minutes. Cells were then labeled with primary antibody in the blocking solution for 12 hours at 4° C. Primary antibody used was p63alpha from Cell Signalling. Samples were washed in PBS three times and donkey-raised secondary antibody Alexa Fluor 488 (Molecular Probes) at 1:500 dilution were applied for 30 minutes at room temperature. Cell nuclei were then labeled in a solution of 0.5 micromolar of Sytox Orange (ThermoFisher) in PBS for 5 minutes at room temperature.
To evaluate the percentage of p63alpha-positive cells, the number of cells labeled by the anti-p63alpha antibody was counted and the total number of cells was determined by counting the number of nuclei stained by Sytox Orange. The proportion of p63alpha-positive cells was then determined by calculating the percentage of Sytox-orange-positive nuclei that also expressed p63alpha.

The test system of assay [2] is human corneal endothelial cells (CECs). In words: Human corneal endothelial cell population expansion: fold cell expansion. The class given is cell-based. The settings on record: 10 micromolar compound, X-VIVO15 medium, 10 days, ratio of expanded to seeded cells. The protocol:
as §1
(§2) For each compound, two sets of cultures were generated. A first set of cultures was fixed in 4% PFA for 20 minutes at room temperature after cells isolated from the cornea had attached to the cell culture dish (typically 24 h after cell plating). A second set of cultures was fixed in 4% PFA for 20 minutes at room temperature 10 days after the first one.
(§3) To measure cell density in all fixed cultures, the number of nuclei stained with Sytox Orange (ThermoFisher) were counted per surface area as follows: fixed cell cultures fixed were permeabilized in a solution of 0.3% Triton X-100 (Sigma-Aldrich). Cells were then labeled in a solution of 0.5 micromolar of Sytox Orange in PBS for 5 minutes at room temperature. Nuclei were counted under a Zeiss epifluorescence microscope. The expansion factor was then determined by calculating the ratio of the expanded population of cells to population of seeded cells.

For assay [3], the system named is YAP nuclear translocation in HaCaT cells. In words: YAP Translocation Assay (HaCaT Cells). The class given is cell-based, human. The settings on record: Homo sapiens, 24 hours. The procedure, abridged:
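HaCaT cells (20,000/well) in DMEM + 10% FBS were plated overnight at 37° C, then exposed to compound for 24 h at 37° C. Cells were fixed with PFA, permeabilized with 0.1% Triton/1.5% BSA and imaged by high-content imaging.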

For assay [4], the target named is Human LATS2 kinase domain protein (Homo sapiens (Human), UniProt Q9NRM7). The assay can be described thus: LATS2 Biochemical Caliper Assay (Compound Examples 1-290). The settings on record: 400 micromolar ATP. Summed up:
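LATS2 catalytic domain (aa 553-1088), co-purified with His-tagged MOBKL1A, reacted with compound for 3 h at 25° C before EDTA (25 mM) stop. Substrate and product separated by microfluidic electrophoresis (Caliper LabChip 3000) and quantified by fluorescence intensity.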

The test system of assay [5] is Phospho-YAP (Ser127) in JHH-5 cells. In words: pYAP HTRF Assay (JHH-5 cells). To be noted: 2 hours. Format: cell-based. Summed up: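 Phospho-YAP read by HTRF (665 nm/620 nm ×10000) in lysates after overnight 18 h antibody incubation at room temperature. Compound treatment lasted 2 h at 37 °C, on JHH-5 cells plated 24 h earlier at 24000 per well in William's E medium with 10% FBS.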
On the technique in general: TR-FRET usually uses a lanthanide donor and a delayed reading to cut background.

Assay [6] concerns Phospho-YAP (SER127) in HaCaT cells. In words: pYAP HTRF Assay (HaCaT Cells). Format: cell-based, human. To be noted: Homo sapiens, 2 hours. The procedure, abridged: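 Phospho-YAP (Ser127) was measured by HTRF (665 nm/620 nm ratio) in HaCaT cells. Cells were grown 48 hours at 37° C at 5500 cells/well, exposed to compound for 2 hours, and incubated with detection reagents for 20 hrs at room temperature.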

For assay [7], the system named is human corneal endothelial cells (CECs). In words: Human corneal endothelial cell population expansion: endothelial cell density in vitro. The class given is cell-based. The settings on record: 10 micromolar compound, X-VIVO15 medium, 10 days. As to the method: as §1, §2, §3

Human LATS2 kinase domain protein, sequence (Q9NRM7 553-1088): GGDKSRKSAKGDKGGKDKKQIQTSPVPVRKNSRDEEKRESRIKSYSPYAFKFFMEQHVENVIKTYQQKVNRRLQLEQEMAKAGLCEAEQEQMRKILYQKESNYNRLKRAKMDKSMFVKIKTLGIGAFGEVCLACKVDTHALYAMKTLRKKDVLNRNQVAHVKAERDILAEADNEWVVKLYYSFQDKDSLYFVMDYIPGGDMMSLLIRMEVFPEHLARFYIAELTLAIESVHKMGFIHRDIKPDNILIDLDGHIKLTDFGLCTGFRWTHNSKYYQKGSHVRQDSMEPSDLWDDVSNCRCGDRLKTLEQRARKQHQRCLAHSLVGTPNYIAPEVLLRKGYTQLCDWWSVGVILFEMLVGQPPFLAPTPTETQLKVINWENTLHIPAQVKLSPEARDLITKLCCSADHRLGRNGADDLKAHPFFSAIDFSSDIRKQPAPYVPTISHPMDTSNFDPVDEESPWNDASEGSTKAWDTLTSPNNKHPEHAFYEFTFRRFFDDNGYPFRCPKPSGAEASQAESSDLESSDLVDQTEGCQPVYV
Human LATS2 kinase domain protein, sequence (Q7L9L4 whole entry partner, the tested form may be a part): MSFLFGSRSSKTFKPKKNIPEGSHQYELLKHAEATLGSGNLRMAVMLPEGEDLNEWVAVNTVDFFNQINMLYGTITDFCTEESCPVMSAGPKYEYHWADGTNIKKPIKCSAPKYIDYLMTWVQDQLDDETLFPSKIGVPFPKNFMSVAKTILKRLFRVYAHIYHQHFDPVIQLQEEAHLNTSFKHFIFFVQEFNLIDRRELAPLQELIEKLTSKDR

Regarding `CC(C)(C)Nc1cc(-c2ccncc2)nc2cnccc12` [Example 261, N-(tert-butyl)-2-(pyridin-4-yl)-1,7-naphthyridin-4-amine], the “Percentage of p63a-positive cells” value in assay [1] is listed as 93%. Also, the “Expansion factor (Fold Cell expansion)” value in assay [2] came to 461. Further, in assay [3], the EC50 (commonly the midpoint of the concentration-response curve) is 1220 nM. Further, the values for the 50% inhibitory concentration (IC50) in assay [4], in assay [5] and in assay [6] were 4 nM, 600 nM and 202 nM, respectively. In addition, in assay [7], the “Endothelial Cell density in vitro” value came out at 4308 cells/mm^2.
In the case of `c1cc(-c2nc(NC3CCCC3)c3ccncc3n2)ccn1` [Example 65, N-cyclopentyl-2-(pyridin-4-yl)pyrido[3,4-d]pyrimidin-4-amine], the “Percentage of p63a-positive cells” value in assay [1] turned out to be 87%. Further, the “Expansion factor (Fold Cell expansion)” value in assay [2] came out at 203. The compound further displayed an EC50 in assay [3] of 1990 nM. Also, the results for the IC50 in assay [4], in assay [5] and in assay [6] were 30 nM, 5800 nM and 895 nM, respectively. Besides, the “Endothelial Cell density in vitro” value in assay [7] stood at 1702 cells/mm^2.
For the compound `CCCNc1nc(-c2ccncc2)nc2cnccc12` [Example 14, N-propyl-2-(pyridin-4-yl)pyrido[3,4-d]pyrimidin-4-amine], the “Percentage of p63a-positive cells” value in assay [1] is recorded as 93%. The “Expansion factor (Fold Cell expansion)” value in assay [2] stood at 337. The compound further displayed an EC50 in assay [3] of 4250 nM. The IC50 – broadly, the concentration that gives 50% inhibition – was 50 nM in assay [4], more than 10000 nM in assay [5] and 7310 nM in assay [6]. The “Endothelial Cell density in vitro” value in assay [7] was 3271 cells/mm^2.
Take `Cc1n[nH]cc1-c1nc(NC2(C)CC2)c2ccncc2n1` [Example 133, 2-(3-methyl-1H-pyrazol-4-yl)-N-(1-methylcyclopropyl)pyrido[3,4-d]pyrimidin-4-amine]: the “Percentage of p63a-positive cells” value in assay [1] amounted to 89%. Besides, the “Expansion factor (Fold Cell expansion)” value in assay [2] amounted to 273. In assay [3], the concentration giving a half-maximal response (EC50) was 1670 nM. The IC50 in assay [4] stood at 4 nM; in assay [5], 1700 nM; in assay [6] it was 414 nM. For the same compound, the “Endothelial Cell density in vitro” value in assay [7] was 2028 cells/mm^2.
As to `CC(C)(O)CC(C)(C)Nc1nc(-c2ccncc2)nc2cnccc12` [Example 49, 2,4-dimethyl-4-{[2-(pyridin-4-yl)pyrido[3,4-d]pyrimidin-4-yl]amino}pentan-2-ol], in assay [1], the “Percentage of p63a-positive cells” value was 92%. Further, the “Expansion factor (Fold Cell expansion)” value in assay [2] came to 426. In assay [3], this compound displayed an EC50 of 1170 nM. Moreover, the 50% inhibitory concentration (IC50) in assay [4] is 21 nM; in assay [5], 1600 nM; in assay [6], 607 nM. For the same compound, the “Endothelial Cell density in vitro” value in assay [7] amounted to 3873 cells/mm^2.
